In US20090088340A1, “METHODS FOR PREDICTING THE REDUCTION/OXIDATION (REDOX) REACTION ACTIVITY OF METAL COMPLEXES” (WESTERN CAROLINA UNIVERSITY, priority 2007, published 2009):
Read-outs that look alike come from different tables or passages of the source. Marks after values point to notes of the source that are not given here.

Tests used:
[1] = Reaction of metal complexes with superoxide (pulse radiolysis and literature rate data); type: physicochemical; conditions: manganese(II) complexes, pulse radiolysis; for kapp,O2,B × 10^−2 (Superoxide Reaction Data): printed value is k × 10^−2; for kapp,O2,A × 10^−7 (Superoxide Reaction Data): printed value is k × 10^−7
Description: In addition, the rates at which O2.^− reacts with Fe^IIIPDTA^−, Mn^IIEDTA(H2O)^2−, Mn^IIPDTA^2−, and Mn^IIβ-EDDADP^2− were determined by pulse radiolysis. […] The data for the SOD enzyme was previously reported. See Viglino et al., J. Magn. Res., 1979, 34, 265. These reactivity patterns are consistent with literature precedents for similar complexes.
Rapid reactions of Fe^3+ with superoxide (O2.^−) appear to occur via inner-sphere mechanisms where metal/O2.^− association is rate limiting. Under this scenario, rates of metal/O2.^− reactions are expected to correlate with rates at which the metal complexes coordinate F^−.
In addition to metal/F^− association data, FIG. 2 includes published rate data for reactions of a water soluble manganese(III) porphyrin (Mn^IIITM-2-PyP^5+). One of the gray squares in FIG. 2 compares the rate of metal/MeOPH association to the catalytic rate constant for O2.^− dissmutation (kcat) for Mn^IIITM-2-PyP^5+. See Summers et al., Inorg. Chem., 2001, 40, 6547. Values of kcat for manganese(III) porphyrins are thought to be limited by rates of Mn^3+ reduction. See Batinic-Haberle et al., Inorg. Chem., 1999, 38, 4011-4022.

[2] = Metal/fluoride association from F^− 19F NMR transverse relaxation enhancement (CPMG); type: physicochemical; conditions: for ΔH^‡ (Anion Binding Data): manganese(II) complexes; for ΔH^‡ (Anion Binding Data) / kapp,X− (Anion Binding Data): metal/F^− association; for kapp,X− (Anion Binding Data) / kapp,X− (Flouride Association Reaction): 25° C., 90% H2O/10% D2O; for kapp,X− (Flouride Association Reaction) / ΔH^‡ (Flouride Association Reaction): iron(III) complexes; for ΔH^‡ (Flouride Association Reaction): activation enthalpy
Text: CPMG is the standard technique for measuring transverse NMR relaxation times (T2). See, for example, Braun et al., “150 and More Basic NMR Experiments,” Wiley-VCH Weinheim, 1998, page 159.
Rate constants for metal/probe association reactions can be related directly to the effects of the metal complex on the NMR relaxation rates of probe nuclei.
R2,obs−R2,dia=kapp,F−[M] (6)
where R2,dia is the relaxation rate in diamagnetic solution and kapp,F− is the apparent second order rate constant for metal/F^− association. The effects of eleven paramagnetic metal complexes, Fe^IIIEDTA(H2O)^−, Fe^IIIEDTA(OH)^2−, Fe^IIIPDTA^−, Fe^IIIDTPA^2−, Fe^III2O(TTHA)^2−, Fe^III(CN)6^3−, Mn^IIEDTA(H2O)^2−, Mn^IIPDTA^2−, Mn^IIβ-EDDADP^2−, Mn^IIPO4^−, and Cu/Zn SOD on F^− ion ^19F NMR transverse relaxation rates (R2=1/T2) were studied in aqueous solutions as a function of temperature.
Without being bound to any one theory, the curvature of the plot can arise from a similarity in the magnitudes of outer-sphere and inner-sphere contributions to relaxation (R2,OS and R2,IS). See Dwek, R. A., Nuclear Magnetic Resonance in Biochemistry, Clarendon, Oxford, 1973. […] See Dwek, R. A., Nuclear Magnetic Resonance in Biochemistry, Clarendon, Oxford, 1973. To estimate the contribution of R2,OS, relaxation enhancement of the ^19F resonance of the trifluoroacetate anion (tfa) by Fe^IIIDTPA^2− was measured. R2,IS for the tfa resonance should be negligible due to the low basicity of the anion and the absence of a through bond pathway for magnetic interaction between the paramagnetic center and the ^19F nuclei. For the tfa resonance, R2,obs decreased with increasing temperature consistent with an outer-sphere interaction.
where α, β, and γ are constants. The γ term for F^− relaxation in Equation 7 was set equal to the slope of the least squares line for the tfa data, and ΔH^‡, α, and β were refined to give the curved trend line following the F^− data in FIG. 6. Dashed lines (a) and (b) in FIG. 6 represent the predicted outer-sphere and inner-sphere contributions to the relaxation rate, respectively. The 25° C. association rate constant and activation enthalpy in Table 1 (and used in FIG. 2) are from this refinement.

SOD = SOD (Bos taurus, UniProt P00442); conditions: from Viglino et al. 1979; cited from earlier work
SOD, sequence (P00442 2-152 limits assumed): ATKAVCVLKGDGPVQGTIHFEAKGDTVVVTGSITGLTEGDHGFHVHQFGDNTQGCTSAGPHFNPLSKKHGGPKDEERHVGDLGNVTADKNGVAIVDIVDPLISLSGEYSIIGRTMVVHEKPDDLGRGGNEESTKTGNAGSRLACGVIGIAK

[3] = cited from earlier work; for kapp,O2− (Superoxide Reaction): iron(III) complexes, aqueous solution, literature values (footnotes b, c, d, f); for kapp,O2,A (Superoxide Reaction Data): full value printed in cell
[4] = trend line of FIG. 8; pH 4.0 to 9.2
Description: While Fe^IIIEDTA(OH)^2− is usually formed by deprotonation of coordinated water, its formation can also be thought of (in thermodynamic terms) as a ligand exchange. To investigate the thermodynamics of the formation of Fe^IIIEDTA(OH)^2−, the reaction of F^− with Fe^IIIEDTA(H2O)^− was studied as a function of pH. For Fe^IIIEDTA(H2O)^−, relaxation enhancements were measured for thirteen buffer conditions, having pH values ranging from 4.0 to 9.2. […] In this pH range, F^− 19F relaxation enhancement is governed by two protic equilibria, hydrolysis of Fe^IIIEDTA(H2O)^− and protonation of F^−, as described by Equations 9 and 10:
Fitting the data at pH>6 gives the thermodynamic equilibrium data for hydroxide binding.

[5] = MeOPH^− association; from Summers et al. 2001; cited from earlier work
Cu/Zn SOD [6] = target: T1, Cu/Zn SOD (Homo sapiens, UniProt P00441); experiment: Reaction of Cu/Zn SOD with superoxide in the presence of an inhibitor; type: biochemical; conditions: 100 μM, 20 mM phosphate buffered saline pH 7.2 (neutral conditions)
T1 sequence (P00441 whole entry): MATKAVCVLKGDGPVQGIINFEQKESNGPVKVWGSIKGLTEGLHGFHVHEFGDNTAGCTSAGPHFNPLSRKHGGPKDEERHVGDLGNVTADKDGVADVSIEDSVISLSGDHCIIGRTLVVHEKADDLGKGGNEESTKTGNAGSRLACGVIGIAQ
Description: SOD was added to give an NMR relaxation rate of 28 s^−1. […] See Huang et al., Nature, 2000, 407, 390-395. […] It was also determined that under these conditions, reaction of the enzyme with superoxide was not inhibited.

Cu/Zn SOD [7] = target: T1, Cu/Zn SOD; conditions: 100 μM; Huang et al., Nature 2000; cited from earlier work

SMILES: O=C([O-])CCN(CCN(CCC(=O)[O-])CC(=O)[O-])CC(=O)[O-].[Mn+2] [Mn^IIβ-EDDADP^2−]
- kapp,O2,B × 10^−2 (Superoxide Reaction Data) [1]: 3.5 ± 0.7 s^−1
- kapp,O2,A × 10^−7 (Superoxide Reaction Data) [1]: 1.95 ± 0.40 M^−1s^−1
- ΔH^‡ (Anion Binding Data) [2]: 22 kJ/mol
- kapp,X− (Anion Binding Data) ([2]; pH 7): 130000 M⁻¹ s⁻¹

SMILES: F [fluoride, fluoride anion]
- association constant for fluoride binding (SOD): 1.2 M⁻¹

SMILES: O=C([O-])CN(CCN(CCN(CC(=O)[O-])CC(=O)[O-])CC(=O)[O-])CCN(CC(=O)[O-])CC(=O)[O-].[Fe+3].[Fe+3].[O-2] [Fe^III2O(TTHA)^2−]
- kapp,X− (Flouride Association Reaction) ([2]; pH 6): 12 M⁻¹ s⁻¹
- ΔH^‡ (Flouride Association Reaction) [2]: 39 kJ/mol
- kapp,O2− (Superoxide Reaction) [3]: 1.2 × 10^4 (d) M^−1s^−1

SMILES: O=P([O-])([O-])[O-].[Mn+2] [Mn^IIPO4 ^−]
- ΔH^‡ (Anion Binding Data) [2]: 42 kJ/mol
- kapp,X− (Anion Binding Data) ([2]; pH 6): 1.8 × 10^6 (b) M^−1s^−1
- kapp,O2,A (Superoxide Reaction Data) ([3]; pH 6, from Cabelli and Bielski): 5.0 × 10^7 (b,c) M^−1s^−1

SMILES: O.O=C([O-])CN(CCN(CC(=O)[O-])CC(=O)[O-])CC(=O)[O-].[Fe+3] [Fe^IIIEDTA(H2O)^−, iron (III) ethylenediamine-N,N,N″,N″-tetraacetic acid hydrate]
- kapp,X− (Flouride Association Reaction) ([2]; pH 6): 93000 M⁻¹ s⁻¹
- ΔH^‡ (Flouride Association Reaction) [2]: 39 kJ/mol
- apparent rate constant for F^− association ([2]; trend line of FIG. 8, pH 4.0 to 9.2): 4e+06 M⁻¹ s⁻¹
- apparent rate constant for HF association [4]: 93000 M⁻¹ s⁻¹
- kapp,O2− (Superoxide Reaction) [3]: 1.9 × 10^6 (f) M^−1s^−1

SMILES: O.O.O.O.O.O.[Mn+2] [Mn^II(H2O)6^2+]
- kapp,O2,A (Superoxide Reaction Data) ([3]; from Pick-Kaplan and Rabini): 1.1 × 10^8 (f) M^−1s^−1
- kapp,X− (Anion Binding Data) [5]: 5.8 × 10^6 (e) M^−1s^−1
- ΔH^‡ (Anion Binding Data) [5]: 47 ^(e) kJ/mol

SMILES: O=C([O-])CN(CCN(CC(=O)[O-])CC(=O)[O-])CCN(CC(=O)[O-])CC(=O)[O-].[Fe+3] [Fe^IIIDTPA^2−, iron (III) diethylenetriaminepentaacetate]
- kapp,X− (Flouride Association Reaction) ([2]; pH 6): 240 M⁻¹ s⁻¹
- ΔH^‡ (Flouride Association Reaction) [2]: 22 kJ/mol
- kapp,O2− (Superoxide Reaction) [3]: 6 × 10^3 (c) M^−1s^−1

SMILES: COc1cc2c(cc1O)CC[C@@H]1[C@@H]2CC[C@]2(C)[C@@H](O)CC[C@@H]12 [Complex 2ME2, 2-methoxyestradiol]
- reaction of the enzyme with superoxide (Cu/Zn SOD [6]): not inhibited
- inhibition of Cu/Zn SOD previously reported (Cu/Zn SOD [7]): complete inhibition

SMILES: O.O=C([O-])CN(CCN(CC(=O)[O-])CC(=O)[O-])CC(=O)[O-].[Mn+2] [Mn^IIEDTA(H2O)^2−]
- kapp,O2,B × 10^−2 (Superoxide Reaction Data) [1]: 4.0 ± 0.8 s^−1
- kapp,O2,A × 10^−7 (Superoxide Reaction Data) [1]: 1.24 ± 0.24 M^−1s^−1
- ΔH^‡ (Anion Binding Data) [2]: 31 kJ/mol
- kapp,X− (Anion Binding Data) ([2]; pH 7): 60000 M⁻¹ s⁻¹
